Test results as given in US10954269B2, “Anti-inflammatory tripeptides” (Dr. August Wolff Gmbh & Co. KG Arzneimittel, priority 2013, dated 2021).

Legend:
[1] = system: primary human T-cells; assay: Cytokine secretion on protein level in activated primary human T-cells (13-plex FACS / Luminex, supernatant); type: cell-based; conditions: for IL-1 cytokine concentration / IL-2 cytokine concentration / IL-4 cytokine concentration / IL-5 cytokine concentration / IL-6 cytokine concentration / IL-9 cytokine concentration / IL-10 cytokine concentration / IL-12p70 cytokine concentration / IL-13 cytokine concentration / IL-17 cytokine concentration / IL-22 cytokine concentration / TNF-α cytokine concentration / INF-α cytokine concentration: substance 10^−9M
Summary of the method: (§1)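 Cytokine protein in supernatant is read by multiplex FACS or Luminex. Tripeptide-treated HaCaT cells or blood-derived human T-cells are stimulated beforehand with PMA/Ionomycin or IFN-γ. The most relevant analytes are IL-1, IL-2, IL-6, IL-12p70, IL-17, IFN-γ and TNF-α, sampled 48 h and 72 h after stimulation.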

[2] = system: primary murine T-cells; assay: Cytokine secretion on protein level in activated primary murine T-cells (13-plex FACS / Luminex, supernatant); type: cell-based, C57BL/6 mice; conditions: for IL-1 cytokine concentration / IL-2 cytokine concentration / IL-4 cytokine concentration / IL-5 cytokine concentration / IL-6 cytokine concentration / IL-10 cytokine concentration / IL-13 cytokine concentration / IL-17 cytokine concentration / IL-21 cytokine concentration / IL-22 cytokine concentration / IL-27 cytokine concentration / TNF-α cytokine concentration / IFN-γ cytokine concentration: substance 10^−9M
Summary of the method: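 T-cells from secondary lymphatic organs of naïve C57BL/6 mice, stimulated with PMA/Ionomycin or IFN-γ; supernatant cytokines measured by 13-plex FACS 48 h and 72 h after stimulation. In another run, PMA/Ionomycin-stimulated cells received compounds at 10^−7, 10^−9 and 10^−11 M, with IFN-γ, IL-17 and IL-10 measured by Luminex.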

[3] = system: human keratinocyte cell line (HaCaT); assay: Cytokine secretion on protein level in activated human keratinocyte cell line HaCaT (13-plex FACS / Luminex, supernatant); type: cell-based; conditions: substance 10^−9M
Summary of the method: as §1

[4] = primary human T-cells stimulated with IFN-γ
[5] = primary human T-cells stimulated with PBS
[6] = primary human T-cells stimulated with PMA/Ionomycin
[7] = primary murine T-cells stimulated with IFN-γ
[8] = primary murine T-cells stimulated with PBS
[9] = primary murine T-cells stimulated with PMA/Ionomycin
[10] = HaCaT stimulated with PMA/Ionomycin

For “N^α,N^α-dimethyl-(L)-Phe-(D)-Pro-N^α-methyl-(L)-Thr-OH [Example 7]”, the “secretion / expression of pro-inflammatory cytokines (supernatant)” value ([1]; activated primary human T-cells) was “immunomodulatory effects were seen”, the IL-1 cytokine concentration [1, 4] was 0 pg/mL and the IL-2 cytokine concentration [1, 4] was 0 pg/mL. It also gave an IL-4 cytokine concentration [1, 4] of 83.34 pg/mL, an IL-5 cytokine concentration [1, 4] of 0 pg/mL and an IL-6 cytokine concentration [1, 4] of 56.38 pg/mL. The IL-9 cytokine concentration [1, 4] was 0 pg/mL, the IL-10 cytokine concentration [1, 4] was 69.21 pg/mL and the IL-12p70 cytokine concentration [1, 4] was 0 pg/mL. It also gave an IL-13 cytokine concentration [1, 4] of 59.7 pg/mL, an IL-17 cytokine concentration [1, 4] of 0 pg/mL and an IL-22 cytokine concentration [1, 4] of 0 pg/mL. The TNF-α cytokine concentration [1, 4] was 0 pg/mL, the IL-1 cytokine concentration [1, 5] was 154.31 pg/mL and the IL-2 cytokine concentration [1, 5] was 126.59 pg/mL. It also gave an IL-4 cytokine concentration [1, 5] of 0 pg/mL, an IL-5 cytokine concentration [1, 5] of 8.58 pg/mL and an IL-6 cytokine concentration [1, 5] of 122.64 pg/mL. The IL-9 cytokine concentration [1, 5] was 13.42 pg/mL, the IL-10 cytokine concentration [1, 5] was 121.25 pg/mL and the IL-12p70 cytokine concentration [1, 5] was 0 pg/mL. For the same substance, the IL-13 cytokine concentration [1, 5] was 0 pg/mL, the IL-17 cytokine concentration [1, 5] was 95.69 pg/mL and the IL-22 cytokine concentration [1, 5] was 0 pg/mL. For the same substance, the INF-α cytokine concentration [1, 5] was 69.17 pg/mL, the TNF-α cytokine concentration [1, 5] was 51.46 pg/mL and the IL-1 cytokine concentration [1, 6] was 508.96 pg/mL. It also gave an IL-2 cytokine concentration [1, 6] of 1650.58 pg/mL, an IL-4 cytokine concentration [1, 6] of 72.07 pg/mL and an IL-5 cytokine concentration [1, 6] of 357.88 pg/mL. The IL-6 cytokine concentration [1, 6] was 1100.07 pg/mL, the IL-9 cytokine concentration [1, 6] was 263.36 pg/mL and the IL-10 cytokine concentration [1, 6] was 842.93 pg/mL. The IL-12p70 cytokine concentration [1, 6] was 0 pg/mL, the IL-13 cytokine concentration [1, 6] was 991.61 pg/mL and the IL-17 cytokine concentration [1, 6] was 2611.96 pg/mL. For the same substance, the IL-22 cytokine concentration [1, 6] was 0 pg/mL, the INF-α cytokine concentration [1, 6] was 6989.26 pg/mL and the TNF-α cytokine concentration [1, 6] was 2062.57 pg/mL. The “secretion / expression of pro-inflammatory cytokines (supernatant)” value ([2]; activated primary murine T-cells) was “immunomodulatory effects were seen”, the IL-1 cytokine concentration [2, 7] was 88.23 pg/mL and the IL-2 cytokine concentration [2, 7] was 98.22 pg/mL. It also gave an IL-4 cytokine concentration [2, 7] of 40.87 pg/mL, an IL-5 cytokine concentration [2, 7] of 265.4 pg/mL and an IL-6 cytokine concentration [2, 7] of 123.98 pg/mL. It also gave an IL-10 cytokine concentration [2, 7] of 1199.53 pg/mL, an IL-13 cytokine concentration [2, 7] of 0 pg/mL and an IL-17 cytokine concentration [2, 7] of 84.26 pg/mL. It also gave an IL-21 cytokine concentration [2, 7] of 0 pg/mL, an IL-22 cytokine concentration [2, 7] of 50.37 pg/mL and an IL-27 cytokine concentration [2, 7] of 0 pg/mL. It also gave a TNF-α cytokine concentration [2, 7] of 25.58 pg/mL, an IFN-γ cytokine concentration [2, 8] of 0 pg/mL and an IL-1 cytokine concentration [2, 8] of 62.38 pg/mL. For the same substance, the IL-2 cytokine concentration [2, 8] was 137.05 pg/mL, the IL-4 cytokine concentration [2, 8] was 60.56 pg/mL and the IL-5 cytokine concentration [2, 8] was 317.47 pg/mL. The IL-6 cytokine concentration [2, 8] was 129.26 pg/mL, the IL-10 cytokine concentration [2, 8] was 1283.71 pg/mL and the IL-13 cytokine concentration [2, 8] was 0 pg/mL. The IL-17 cytokine concentration [2, 8] was 0 pg/mL, the IL-21 cytokine concentration [2, 8] was 0 pg/mL and the IL-22 cytokine concentration [2, 8] was 15.86 pg/mL. For the same substance, the IL-27 cytokine concentration [2, 8] was 61.43 pg/mL, the TNF-α cytokine concentration [2, 8] was 53.67 pg/mL and the IFN-γ cytokine concentration [2, 9] was 1916.21 pg/mL. The IL-1 cytokine concentration [2, 9] was 154.26 pg/mL, the IL-2 cytokine concentration [2, 9] was 99.71 pg/mL and the IL-4 cytokine concentration [2, 9] was 99.12 pg/mL. For the same substance, the IL-5 cytokine concentration [2, 9] was 246.42 pg/mL, the IL-6 cytokine concentration [2, 9] was 184.98 pg/mL and the IL-10 cytokine concentration [2, 9] was 1233.22 pg/mL. The IL-13 cytokine concentration [2, 9] was 0 pg/mL, the IL-17 cytokine concentration [2, 9] was 67.92 pg/mL and the IL-21 cytokine concentration [2, 9] was 0 pg/mL. For the same substance, the IL-22 cytokine concentration [2, 9] was 71.09 pg/mL, the IL-27 cytokine concentration [2, 9] was 90.15 pg/mL and the TNF-α cytokine concentration [2, 9] was 40.87 pg/mL. For the same substance, the IL-1 cytokine concentration ([3]; HaCaT stimulated with IFN-γ) was 109.65 pg/mL, the IL-2 cytokine concentration ([3]; HaCaT stimulated with IFN-γ) was 267.78 pg/mL and the IL-4 cytokine concentration ([3]; HaCaT stimulated with IFN-γ) was 0 pg/mL. It also gave an IL-5 cytokine concentration ([3]; HaCaT stimulated with IFN-γ) of 0 pg/mL, an IL-6 cytokine concentration ([3]; HaCaT stimulated with IFN-γ) of 470.44 pg/mL and an IL-9 cytokine concentration ([3]; HaCaT stimulated with IFN-γ) of 14.88 pg/mL. For the same substance, the IL-10 cytokine concentration ([3]; HaCaT stimulated with IFN-γ) was 0 pg/mL, the IL-12p70 cytokine concentration ([3]; HaCaT stimulated with IFN-γ) was 0 pg/mL and the IL-13 cytokine concentration ([3]; HaCaT stimulated with IFN-γ) was 1843.69 pg/mL. It also gave an IL-17 cytokine concentration ([3]; HaCaT stimulated with IFN-γ) of 202.45 pg/mL, an IL-22 cytokine concentration ([3]; HaCaT stimulated with IFN-γ) of 0 pg/mL and a TNF-α cytokine concentration ([3]; HaCaT stimulated with IFN-γ) of 0 pg/mL. The IFN-γ cytokine concentration ([3]; HaCaT stimulated with PBS) was 0 pg/mL, the IL-1 cytokine concentration ([3]; HaCaT stimulated with PBS) was 181.03 pg/mL and the IL-2 cytokine concentration ([3]; HaCaT stimulated with PBS) was 180.91 pg/mL. For the same substance, the IL-4 cytokine concentration ([3]; HaCaT stimulated with PBS) was 0 pg/mL, the IL-5 cytokine concentration ([3]; HaCaT stimulated with PBS) was 113.28 pg/mL and the IL-6 cytokine concentration ([3]; HaCaT stimulated with PBS) was 119.59 pg/mL. It also gave an IL-9 cytokine concentration ([3]; HaCaT stimulated with PBS) of 0 pg/mL, an IL-10 cytokine concentration ([3]; HaCaT stimulated with PBS) of 0 pg/mL and an IL-12p70 cytokine concentration ([3]; HaCaT stimulated with PBS) of 0 pg/mL. For the same substance, the IL-13 cytokine concentration ([3]; HaCaT stimulated with PBS) was 1910.22 pg/mL, the IL-17 cytokine concentration ([3]; HaCaT stimulated with PBS) was 0 pg/mL and the IL-22 cytokine concentration ([3]; HaCaT stimulated with PBS) was 0 pg/mL. It also gave a TNF-α cytokine concentration ([3]; HaCaT stimulated with PBS) of 21.66 pg/mL, an IFN-γ cytokine concentration [3, 10] of 450.42 pg/mL and an IL-1 cytokine concentration [3, 10] of 0 pg/mL. The IL-2 cytokine concentration [3, 10] was 218.82 pg/mL, the IL-4 cytokine concentration [3, 10] was 112.94 pg/mL and the IL-5 cytokine concentration [3, 10] was 88.67 pg/mL. For the same substance, the IL-6 cytokine concentration [3, 10] was 359.17 pg/mL, the IL-9 cytokine concentration [3, 10] was 14.57 pg/mL and the IL-10 cytokine concentration [3, 10] was 64.01 pg/mL. The IL-12p70 cytokine concentration [3, 10] was 0 pg/mL, the IL-13 cytokine concentration [3, 10] was 1877.03 pg/mL and the IL-17 cytokine concentration [3, 10] was 209.12 pg/mL. For the same substance, the IL-22 cytokine concentration [3, 10] was 0 pg/mL and the TNF-α cytokine concentration [3, 10] was 0 pg/mL.
